The first test concerns the target T1, human β3 adrenergic receptor (Homo sapiens, UniProt P13945).
T1 construct: expressed in transfected cells; host or cells: CHO (Chinese hamster ovary) cells, stably transfected
Put plainly: Beta-3 agonist in vitro functional assay (cAMP production, LANCE, transfected CHO cells). The conditions noted are these: Table 1, CHO cells with cloned β3 receptor, ligands titrated 10^-10 M to 10^-5 M, read-out: Human β3 agonist functional activity. Format: cell-based. As for the experimental part:
Functional Assay: For compounds in examples 1-50, cAMP production in response to ligand is measured according to Barton, et al. (1991, Agonist-induced desensitization of D2 dopamine receptors in human Y-79 retinoblastoma cells. Mol. Pharmacol. […]:650-658) modified as follows. The cAMP production is measured using a homogenous time-resolved fluorescence resonance energy transfer immunoassay (LANCE™, Perkin Elmer) according to the manufacture's instructions. Chinese hamster ovary (CHO) cells, stably transfected with the cloned β-adrenergic receptor (β1, β2 or β3) are harvested after 3 days of subculturing. Harvesting of cells is done with Enzyme-free Dissociation Media (Specialty Media). Cells are then counted and resuspended in assay buffer (Hank's Balanced salt solution supplemented with 5 mM HEPES, […]) containing a phosphodiesterase inhibitor (IBMX, 0.6 mM). The reaction is initiated by mixing 6,000 cells in 6 μL with 6 μL Alexa Fluor labeled cAMP antibody (LANCE™ kit) which is then added to an assay well containing 12 μL of compound (diluted in assay buffer to 2× final concentration). The reaction proceeds for 30 minutes at RT and is terminated by the addition of 24 ul detection buffer (LANCE™ kit). The assay plate is then incubated for 1 h at RT and time-resolved fluorescence measured on a Perkin Elmer Envision reader or equivalent. The unknown cAMP level is determined by comparing fluorescence levels to a cAMP standard curve.
The non-selective, full agonist β-adrenergic ligand isoproterenol is used at all three receptors to determine maximal stimulation. The human β3 adrenergic receptor (AR) selective ligand (S)-N-[4-[2-[[2-hydroxy-3-(4-hydroxyphenoxy)propyl]amino]ethyl]-phenyl]-4-iodobenzenesulfonamide is used as a control in all assays. […] The EC50 is defined as the concentration of compound that gives 50% activation of its own maximum. Data are analyzed using Microsoft Excel and Graphpad Prism or an internally developed data analysis software package.
The EC50 is defined as the concentration of compound that gives 50% activation of its own maximum. Functional antagonist assays are performed similar to described above; however, unknown ligands are titrated at β-adrenergic receptor subtypes 1 and 2 at a final concentration in the assay of 10^-12 M to 10^-5 M in the presence of 10^-9 M full agonist β-adrenergic ligand isoproterenol. The EC50 is defined as the concentration of compound that gives 50% inhibition of the full agonist response. Data are analyzed using Microsoft Excel and Graphpad Prism or an internally developed data analysis software package.
T1 sequence (P13945 whole entry): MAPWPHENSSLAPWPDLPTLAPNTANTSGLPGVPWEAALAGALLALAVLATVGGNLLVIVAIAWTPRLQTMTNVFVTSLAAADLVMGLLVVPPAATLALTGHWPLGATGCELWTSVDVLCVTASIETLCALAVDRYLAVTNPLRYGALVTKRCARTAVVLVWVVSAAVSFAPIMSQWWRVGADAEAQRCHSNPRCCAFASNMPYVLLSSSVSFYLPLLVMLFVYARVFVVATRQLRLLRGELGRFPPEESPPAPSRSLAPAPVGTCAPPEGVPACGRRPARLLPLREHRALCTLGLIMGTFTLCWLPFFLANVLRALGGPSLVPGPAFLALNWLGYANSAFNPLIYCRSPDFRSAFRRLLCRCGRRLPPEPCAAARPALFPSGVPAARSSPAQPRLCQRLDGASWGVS
For `CN1CCC(NC(=O)c2ccc(C[C@@H]3CC[C@H]([C@H](O)c4cccnc4)N3)cc2)C1=O` (stereo partly drawn) [Example 49], the EC50 lay within 100 to 999 nM.
On the same count and under the same terms, the value for `O=C(NCc1cccnn1)c1ccc(C[C@@H]2CC[C@H]([C@H](O)c3ccccc3)N2)cc1` [Example 8] was 100 to 999 nM; that for `Cn1c(CNC(=O)c2ccc(C[C@@H]3CC[C@H]([C@H](O)c4cccnc4)N3)cc2)nc2ccccc21` [Example 36] was 10 to 99.9 nM; that for `O=C(NCc1cc(-c2ccccc2)ncn1)c1ccc(C[C@@H]2CC[C@H]([C@H](O)c3ccccc3)N2)cc1` [Example 23] was 10 to 99.9 nM.
Same read-out and setting: with `Cn1c(CNC(=O)c2ccc(C[C@@H]3CC[C@H]([C@H](O)c4ccccc4)N3)cc2)nc2ccccc21` [Example 35] the figure was 10 to 99.9 nM; with `O=C(NC1CCCc2cccnc21)c1ccc(C[C@@H]2CC[C@H]([C@H](O)c3ccccc3)N2)cc1` (stereo partly drawn) [Example 48], 100 to 999 nM; with `O=C(NCc1nc2ccccc2s1)c1ccc(C[C@@H]2CC[C@H]([C@H](O)c3ccccc3)N2)cc1` [Example 40], 10 to 99.9 nM.
For the compound `O=C(NCc1nccc(C2CC2)n1)c1ccc(C[C@@H]2CC[C@H]([C@H](O)c3ccccc3)N2)cc1` [Example 15], the EC50 was in the range of 10 to 99.9 nM.
On the same count and under the same terms, the value for `O=C(NCc1nccc2ccccc12)c1ccc(C[C@@H]2CC[C@H]([C@H](O)c3ccccc3)N2)cc1` [Example 42] was 1 to 9.9 nM; that for `O=C(NCc1cc(Cl)ccn1)c1ccc(C[C@@H]2CC[C@H]([C@H](O)c3ccccc3)N2)cc1` [Example 5] was 10 to 99.9 nM; that for `O=C(NCc1nc2cccnc2[nH]1)c1ccc(C[C@@H]2CC[C@H]([C@H](O)c3ccccc3)N2)cc1` [Example 37] was 10 to 99.9 nM.
In the case of `O=C(NC1CCc2scnc21)c1ccc(C[C@@H]2CC[C@H]([C@H](O)c3ccccc3)N2)cc1` (stereo partly drawn) [Example 47], the EC50 lay in the range of 100 to 999 nM.
In the case of `O=C(NCc1cc(-c2ccccc2)n[nH]1)c1ccc(C[C@@H]2CC[C@H]([C@H](O)c3ccccc3)N2)cc1` [Example 32], the EC50 lay in the range of 10 to 99.9 nM.
As to `Cc1cc(-c2ccccc2)nc(CNC(=O)c2ccc(C[C@@H]3CC[C@H]([C@H](O)c4ccccc4)N3)cc2)n1` [Example 22], the EC50 lay within 10 to 99.9 nM.
Same read-out and setting: with `Nc1nc(CNC(=O)c2ccc(C[C@@H]3CC[C@H]([C@H](O)c4cccnc4)N3)cc2)cs1` [Example 26] the figure was 10 to 99.9 nM; with `O=C(NCc1nccc(C(F)(F)F)n1)c1ccc(C[C@@H]2CC[C@H]([C@H](O)c3ccccc3)N2)cc1` [Example 14], 10 to 99.9 nM; with `CC(NC(=O)c1ccc(C[C@@H]2CC[C@H]([C@H](O)c3ccccc3)N2)cc1)c1cnccn1` (stereo partly drawn) [Example 11], 999 to 3000 nM.

Staying with this test, now noted: Table 2, CHO cells with cloned β3 receptor, ligands titrated 10^-10 M to 10^-5 M, read-out: Human β3 agonist functional activity.
For `Cc1cc(C)nc(CNC(=O)c2ccc(C[C@@H]3CC[C@H]([C@H](O)c4ccc(F)cc4)N3)cc2)n1` [Example 50], the EC50 was 10 to 99.9 nM.

Still in this test, the particulars now being: Table 3, CHO cells with cloned β3 receptor, ligands titrated 10^-12 M to 10^-5 M, read-out: Human β3 agonist functional activity.
As to `CN(Cc1nc2ccccc2n1C)C(=O)c1ccc(C[C@@H]2CC[C@H]([C@H](O)c3ccccc3)N2)cc1` [Example 70], the EC50 fell in the range of 100 to 999 nM.
Still for that read-out and setting: the value for `CN(Cc1cc(-c2ccncc2)on1)C(=O)c1ccc(C[C@@H]2CC[C@H]([C@H](O)c3ccccc3)N2)cc1` [Example 107] was 100 to 999 nM; that for `CN(Cc1ncc[nH]1)C(=O)c1ccc(C[C@@H]2CC[C@H]([C@H](O)c3ccccc3)N2)cc1` [Example 113] was 10 to 99.9 nM.
On the same count and under the same terms, the value for `Cc1csc(CCN(C)C(=O)c2ccc(C[C@@H]3CC[C@H]([C@H](O)c4ccccc4)N3)cc2)n1` [Example 88] was 10 to 99.9 nM; that for `O=C(c1ccc(C[C@@H]2CC[C@H]([C@H](O)c3ccccc3)N2)cc1)N(CCO)Cc1ccccc1F` [Example 87] was 1 to 9.9 nM; that for `Cc1ccc(OCCN(C)C(=O)c2ccc(C[C@@H]3CC[C@H]([C@H](O)c4ccccc4)N3)cc2)cc1` [Example 120] was 1000 to 3000 nM.
Same read-out and setting: with `CN(Cc1nc2ccsc2c(=O)[nH]1)C(=O)c1ccc(C[C@@H]2CC[C@H]([C@H](O)c3ccccc3)N2)cc1` [Example 114] the figure was 1 to 9.9 nM; with `CN(C)C(=O)c1ccc(C[C@@H]2CC[C@H]([C@H](O)c3ccccc3)N2)cc1` [Example 69], 10 to 99.9 nM; with `CN(Cc1cccc(F)c1)C(=O)c1ccc(C[C@@H]2CC[C@H]([C@H](O)c3ccccc3)N2)cc1` [Example 60], 1 to 9.9 nM.
Regarding `CN(Cc1cccc(Br)n1)C(=O)c1ccc(C[C@@H]2CC[C@H]([C@H](O)c3ccccc3)N2)cc1` [Example 77], the EC50 lay within 10 to 99.9 nM.
The same measure, in the same setting: with `Cc1cccc(CN(C)C(=O)c2ccc(C[C@@H]3CC[C@H]([C@H](O)c4ccccc4)N3)cc2)n1` [Example 67] the figure was 10 to 99.9 nM; with `CN(C(=O)c1ccc(CC2CCC(C(O)c3ccccc3)N2)cc1)C(c1ccccn1)C1CC1` (mixture of isomers) [Example 96], 100 to 999 nM.
The same measure, in the same setting: with `CN(Cc1cscn1)C(=O)c1ccc(C[C@@H]2CC[C@H]([C@H](O)c3ccccc3)N2)cc1` [Example 108] the figure was 100 to 999 nM; with `Cc1cccn2cc(CN(C)C(=O)c3ccc(C[C@@H]4CC[C@H]([C@H](O)c5ccccc5)N4)cc3)nc12` [Example 126], 100 to 999 nM.
Still for that read-out and setting: with `Cc1nccc(CN(C)C(=O)c2ccc(C[C@@H]3CC[C@H]([C@H](O)c4ccccc4)N3)cc2)n1` [Example 81] the figure was 10 to 99.9 nM.
For the compound `CN(Cc1nc(-c2ccncc2)no1)C(=O)c1ccc(C[C@@H]2CC[C@H]([C@H](O)c3ccccc3)N2)cc1` [Example 103], the EC50 was 100 to 999 nM.
The same measure, in the same setting: with `CN(Cc1cnn(-c2ccccc2)n1)C(=O)c1ccc(C[C@@H]2CC[C@H]([C@H](O)c3ccccc3)N2)cc1` [Example 58] the figure was 10 to 99.9 nM.
On the same count and under the same terms, with `CCN(Cc1ccnc(C(C)C)n1)C(=O)c1ccc(C[C@@H]2CC[C@H]([C@H](O)c3ccccc3)N2)cc1` [Example 104] the figure was 10 to 99.9 nM; with `CN(Cc1cccc2ncccc12)C(=O)c1ccc(C[C@@H]2CC[C@H]([C@H](O)c3ccccc3)N2)cc1` [Example 109], 100 to 999 nM; with `CN(Cc1nccs1)C(=O)c1ccc(C[C@@H]2CC[C@H]([C@H](O)c3ccccc3)N2)cc1` [Example 118], 100 to 999 nM.
On the same count and under the same terms, the value for `CN(Cc1cccnc1Cl)C(=O)c1ccc(C[C@@H]2CC[C@H]([C@H](O)c3ccccc3)N2)cc1` [Example 124] was 10 to 99.9 nM; that for `CN(Cc1ccncc1)C(=O)c1ccc(C[C@@H]2CC[C@H]([C@H](O)c3ccccc3)N2)cc1` [Example 71] was 100 to 999 nM.
As to `CN(CC1CCCO1)C(=O)c1ccc(C[C@@H]2CC[C@H]([C@H](O)c3ccccc3)N2)cc1` (stereo partly drawn) [Example 127], the EC50 was in the range of 100 to 999 nM.
As to `CN(Cc1ccc2nccnc2c1)C(=O)c1ccc(C[C@@H]2CC[C@H]([C@H](O)c3ccccc3)N2)cc1` [Example 92], the EC50 lay within 10 to 99.9 nM.
Consider `CN(Cc1n[nH]c2c1CCCC2)C(=O)c1ccc(C[C@@H]2CC[C@H]([C@H](O)c3ccccc3)N2)cc1` [Example 85], for which the EC50 was under 1 nM.
Still for that read-out and setting: the value for `Cc1cnc(CN(CC(C)C)C(=O)c2ccc(C[C@@H]3CC[C@H]([C@H](O)c4ccccc4)N3)cc2)s1` [Example 116] was 10 to 99.9 nM; that for `CC(C)c1noc(CN(C)C(=O)c2ccc(C[C@@H]3CC[C@H]([C@H](O)c4ccccc4)N3)cc2)n1` [Example 93] was 10 to 99.9 nM.

The test is the same for the next values; noted with them: given as a range, CHO cells with cloned β3 receptor, read-out: human Beta-3 agonist functional activity.
On to `CN(CCc1ccccn1)C(=O)c1ccc(C[C@@H]2CC[C@H]([C@H](O)c3ccccc3)N2)cc1` [Example 134, 4-({(2S,5R)-5-[(R)-hydroxy(phenyl)methyl]pyrrolidin-2-yl}methyl)-N-methyl-N-[2-(pyridin-2-yl)ethyl)benzamide], for which the EC50 lay in the range of 10 to 99.9 nM.
On the same count and under the same terms, the value for `CN(Cc1cccc(N)n1)C(=O)c1ccc(C[C@@H]2CC[C@H]([C@H](O)c3ccccc3)N2)cc1` [Example 136, N-[(6-aminopyridin-2-yl)methyl]-4-({(2S,5R)-5-[(R)-hydroxy(phenyl)methyl]pyrrolidin-2-yl}methyl)-N-methylbenzamide] was under 1 nM; that for `CN(Cc1cccnc1)C(=O)c1ccc(C[C@@H]2CC[C@H]([C@H](O)c3ccccc3)N2)cc1` [Example 51, 4-({(2S,5R)-5-[(R)-hydroxy(phenyl)methyl]pyrrolidin-2-yl}methyl)-N-methyl-N-(pyridine-3-ylmethyl)benzamide] was 1 to 9.9 nM.
